The test system of the experiment is IL-13 release from KU812 cells. The experiment can be described thus: IL-13 release assay in KU812 cells (PMA + ionomycin, IL-13 ELISA). It counts as cell-based, human. A general note: In an ELISA, binding on a coated surface is turned into a signal by an enzyme label.

Read-outs that look alike come from different tables or passages of the source.

The term inhibition denotes the drop in the measured response relative to a control, in per cent.

With `C[C@@H]1C[C@H]2[C@@H]3CCC4=CC(=O)C=C[C@]4(C)[C@@]3(F)[C@@H](O)C[C@]2(C)[C@@]1(O)C(=O)CO` [Dexamethasone], the inhibition at 10 µM (Homo sapiens, positive control 10 μM, read-out: Percentages of IL-13 inhibition) amounted to 52%.
On to `O=c1c(O)c(-c2ccc(O)c(O)c2)oc2cc(O)ccc12` [Fistein, Fisetin], for which the inhibition at 1 µM (Homo sapiens, 1 μM, read-out: Percentages of IL-13 inhibition) is 26.5%. Also, the inhibition at 10 µM (Homo sapiens, 10 μM (Fistein), read-out: Percentages of IL-13 inhibition) is 17.3%. Also, the inhibition at 100 µM (Homo sapiens, 100 μM, read-out: Percentages of IL-13 inhibition) worked out at 35.7%. Further, the “IL-13 release / inhibition, in words” value (first screening (Examples 1 and 3)) is “the inhibition percentages were relatively low”.
